Marks after values point to notes of the source that are not given here.
Assays:
[1] = system: CCRF-CEM (CCL-119) (T-lymphoblastic leukemia); assay: MTT cytotoxicity on CCRF-CEM cells; assay type: cell-based; conditions: Homo sapiens, 24 hours
Protocol: (§1) The cytotoxic properties of the compounds were determined in vitro using the MTT method in 96-well plates (Costar, USA). […] Rat liver hepatocytes were obtained according to the method, human blood mononuclear cells - according to [23]. Fibroblast cells were obtained according to the method of [24] with some modifications. Cell cultures were subcultured into 96-well plates according to the method of [21] by adding 100 μl of nutrient medium. The CCRF-CEM suspension culture was poured into a tube, centrifuged at 800 rpm for 10 minutes, and the supernatant was discarded. […] Data obtained in 3 independent experiments were expressed as the mean value for each concentration ± standard error of the mean, relative to the control values (cells without test compounds). The cytotoxic effect of each of the studied compounds was compared with the effect of the cytostatic Cisplatin-Naprod (India), containing cisplatin as an active component. Table 1: IC50 μM value for test compounds

fibroblasts = assay: MTT cytotoxicity on fibroblasts; assay type: cell-based; conditions: Fibroblast, 24 hours
Protocol: as §1

Rat liver hepatocytes = assay: MTT cytotoxicity on hepatocytes; assay type: cell-based; conditions: Rattus norvegicus, Hepatocyte, 24 hours
Protocol: as §1

[2] = Acute toxicity study (LD50); conditions: mouse, in vivo, ip
Protocol: (§2) We studied the acute toxicity of compound F1 in vivo. The experiments were carried out on outbred white mice of both sexes weighing 18-20 g (24 pcs.). The animals were divided into groups of 12 mice each. The compound was dissolved in DMSO and then adjusted to the desired concentration with 0.9% NaCl solution and administered intraperitoneally and subcutaneously in a dose range from 5.0 to 200.0 mg/kg. […] The maximum relative error of the applied dose was no more than 5%.
as §2, with “F2” for “F1”, “brought” for “adjusted”, “subcutaneously to animals” for “subcutaneously”, “administered” for “applied”

outbred white mice = assay: Acute toxicity study (LD50)
Protocol: as §2
as §2, with “F2” for “F1”, “brought” for “adjusted”, “subcutaneously to animals” for “subcutaneously”, “administered” for “applied”

[3] = system: blood of patients with leukemia (combined group); assay: Hemogram of blood of patients with leukemia (combined group) after exposure; assay type: cell-based
Source text: (§3) The effect of compounds F1 and F2 was studied on biological material (blood) of patients with hematological malignancies (leukemia), as well as for individual nosologies, in particular, patients with leukemia (combined group) (n=224), T-ALL (n=84), B-ALL (n=100), ALL (n=100), AML (n= 98), AML (n=94) and AML (n= 98) were studied. A total of 798 blood samples from patients with leukemia were examined.
(§4) The drugs Cytosar (Alexan) (Ebewe Pharma, Austria) and doxorubicin (Naprod, Mumbai, India) recommended by WHO for the treatment of the above oncohematological diseases were used as comparison drugs.
(§5) 5 ml of venous blood from sick and conditionally healthy individuals were collected into Vacutainer tubes with the addition of EDTA (Himedia, India).
(§6) The resulting blood was divided into aliquots of 1 ml and 10 µl (10 µg/ml) of the studied drugs (cytosar, doxorubicin, F1 and F2) were added to each tube.

[4] = system: blood of patients with T-ALL; assay: Hemogram of blood of patients with T-ALL after exposure; assay type: cell-based
Source text: as §3, §4, §5, §6

[5] = system: blood of patients with B-ALL; assay: Hemogram of blood of patients with B-ALL after exposure; assay type: cell-based
Protocol: A total of 798 blood samples from patients with leukemia were examined.
as §4, §5, §6

[6] = system: blood of patients with ALL; assay: Hemogram of blood of patients with ALL after exposure; assay type: cell-based
Protocol: as §3, §5, §6

[7] = system: blood of patients with AML; assay: Hemogram of blood of patients with AML after exposure (Example 12, Table 9); assay type: cell-based
Protocol: as §4, §5, §6

[8] = system: blood of patients with AML; assay: Hemogram of blood of patients with AML after exposure (Example 13, Table 10; also OMML); assay type: cell-based
Protocol: as §4, §5, §6

[9] = system: blood of patients with AML; assay: Hemogram of blood of patients with AML after exposure (Example 14, Table 11); assay type: cell-based
Source text: as §3, §4, §5, §6

[10] = AML (Table 9), 10 µg/ml, 3 hours, 37.0°C
[11] = AML (Example 13), compared with doxorubicin
[12] = AML (Table 10), 10 µg/ml, 3 hours, 37.0°C
[13] = AML (Example 14), compared to cytosar
[14] = AML (Table 11), 10 µg/ml, 3 hours, 37.0°C

## COc1cc2c(cc1OC)C(c1cc3c(cc1Br)OCO3)NCC2 (centres unmarked) [Compound F1, 1-(2'-bromo-4',5'-methylenedioxyphenyl)-6,7-dimethoxy-1,2,3,4-tetrahydroisoquinoline]
[1]
  IC50: 36.6 µM
fibroblasts
  IC50: > 100 µM
Rat liver hepatocytes
  IC50: > 100 µM
[2]
  LD50 at 168 h: 240 ± 13.8 mg/kg
Outbred white mice; classified from LD50
  toxicity class: toxicity class 3 (moderately toxic)
Outbred white mice; intraperitoneal, mice, observed for a week, 10080 min
  LD50 dose: 240,0±13,8 mg/kg
Outbred white mice; relative to cytosar
  LD50 value, times higher than cytosar (cytarabine): 57 times
Outbred white mice; relative to doxorubicin
  LD50 value, times higher than doxorubicin: 22 times
[3]; 10 µg/ml, 3 hours, 37.0°C
  Band (s/n) neutrophils: 2,5±0,3 %
  Blasts: 65,7±2,3 %
  Destroyed cells: 14,8±1,8*^ # %
  Eosinophils: 4,0±0,6 %
  Lymphocytes: 12,0±0,9%
  Monocytes: 4,9±0,6 %
  Myelocytes: 4,0±0,5 %
  Promyelocytes: 5,0±0,6^ %
  Segmented (s/i) neutrophils: 7,0±0,8%
[3]; versus Control group
  decrease in the content of blasts: 10.7%
[3]; versus control
  increase in the percentage of neutrophils: 1.8 times
  increase in the proportion of destroyed cells: 9.3%
  increase in the proportion of eosinophils: 2.7 times
[4]; 10 µg/ml, 3 hours, 37.0°C
  Band (s/n) neutrophils: 0.0±0.0%
  Blasts: 68,9±1,7 %
  Destroyed cells: 16,9±1,1*^ # %
  Eosinophils: 0,0±0,6%
  Lymphocytes: 9,1±1,0%
  Monocytes: 1,3±0,3 %
  Myelocytes: 0,0±0,0%
  Promyelocytes: 0,0±0,0%
  Segmented (s/i) neutrophils: 3.9±0,4 %
[4]; comparator not stated
  decrease in p/i neutrophils: 1.7 times
[4]; compared with cytosar
  increase in the proportion of destroyed cells: 1.9 times
[4]; compared with doxorubicin
  increase in the proportion of destroyed cells: 1.3 times
[5]
  decrease in the content of blasts: 1.16 times
  increase in the proportion of destroyed cells: 4.1 times
[5]; 10 µg/ml, 3 hours, 37.0°C
  Band (s/n) neutrophils: 1,4±0,4%
  Blasts: 59,0±2,9 %
  Destroyed cells: 12,6±2,0 %
  Eosinophils: 0,2±0,1%
  Lymphocytes: 13,5±1,7 %
  Monocytes: 3,5±0,8 %
  Myelocytes: 0,5±0,2%
  Promyelocytes: 0,0±0,0%
  Segmented (s/i) neutrophils: 9,4±0,9 %
[6]; 10 µg/ml, 3 hours, 37.0°C
  Band (s/n) neutrophils: 0,3±0,1%
  Blasts: 68,4±2,7*^ %
  Destroyed cells: 12,9±1,7*^ %
  Eosinophils: 0,0±0,0%
  Lymphocytes: 12,6±1,1 %
  Monocytes: 1,8±0,4%
  Myelocytes: 0,0±0,0%
  Promyelocytes: 0,0±0,0%
  Segmented (s/i) neutrophils: 4,2±1,0 %
[6]; compared to cytosar
  percentage of destroyed cells higher: 2.7 times
[6]; compared with cytosar
  difference in the level of blast cells: 1.15 times
[7]; AML (Example 12)
  decrease in the percentage of blasts: 1.2 times
  increase in the level of destroyed cells: 4.5 times
  increase in the proportion of mature differentiated neutrophils: 2.6 times
[7]; AML (Example 12), compared with cytosar
  increase in the percentage of destroyed cells: 2.0 times
[7]; AML (Example 12), compared with doxorubicin
  decrease in the percentage of destroyed cells: 2.3 times
[7]; [10]
  Band (s/n) neutrophils: 1,2±0,3%
  Blasts: 63,6±2,3 %
  Destroyed cells: 12,7±1,2*^ # %
  Eosinophils: 0,4±0,2%
  Lymphocytes: 10,7±1,1%
  Monocytes: 3,0±0,7%
  Myelocytes: 1,2±0,6%
  Promyelocytes: 0,3±0,2%
  Segmented (s/i) neutrophils: 7,0±0,7 %
[8]; AML (Example 13)
  decrease in the percentage of myelocytes: 2.5 times
  decrease in the proportion of blasts: 1.6%
  increase in the proportion of destroyed cells: 5.3 times
  increase in the proportion of neutrophils: 2.0 times
[8]; AML (Example 13), compared with Cytosar
  proportion of destroyed cells higher: 2.4 times
[8]; [11]
  myelocytes lower: 1.5 times
  proportion of destroyed cells higher: 1.2 times
[8]; AML (Example 13), relative to cytosar
  percentage of myelocytes lower: 6.15 times
[8]; [12]
  Band (s/n) neutrophils: 2,8±0,3%
  Blasts: 51,1±2,2%
  Destroyed cells: 18,7±1,3*^ # %
  Eosinophils: 0,8±0,3%
  Lymphocytes: 6,2±0,6%
  Monocytes: 1,4±0,2 %
  Myelocytes: 2,6±0,5 %
  Promyelocytes: 0,0±0,0%
  Segmented (s/i) neutrophils: 16,6±1,3 %
[9]; [13]
  percentage of blasts lower: 4.1%
  percentage of monocytes lower: 2.4 times
[9]; AML (Example 14), than after Cytosar
  percentage of destroyed cells higher: 1.8 times
[9]; [14]
  Band (s/n) neutrophils: 1,6±0,5%
  Blasts: 55,4±3,1 %
  Destroyed cells: 22,6±2,3*^ %
  Eosinophils: 0,0±0,0%
  Lymphocytes: 10,1±1,0%
  Monocytes: 2.0±0,6^ %
  Myelocytes: 0,9±0,3%
  Promyelocytes: 0,0±0,0%
  Segmented (s/i) neutrophils: 9,6±1,7%

From patent publication EP4506003A1, “HALOGEN DERIVATIVES OF (4´,5´- METHYLENEDIOXYPHENYL)-6,7-DIMETHOXY-1,2,3,4-TETRAHYDROISOQUINOLINE FOR USE IN THE TREATMENT OF LEUKEMIA” (S.Yu Yunusov Institute of Chemistry of Plant Substances of …, priority 2023, dated 2025)
